Counter-ions that a name gives are not always drawn.
Each compound was assayed on B-cell lymphocytes (CD20+) in human whole blood, CD69 up-regulation (assay: B Cell CD69 Up-Regulation Assay in Human Whole Blood). Conditions: goat anti-human IgM 50 μg/ml stimulation for 20 hrs, CD69hi CD20+ B cells, read-out: HWB, IC50.
Type: cell-based
Procedure: B Cell CD69 Up-Regulation Assay in Human Whole Blood
Human Blood was collected from healthy volunteers into Vacutainers (BD Biosciences, San Jose, Calif.) containing sodium heparin. Test compound was suspended in DMSO and nine half-log serial dilutions were made. The concentration of DMSO in the assay was 0.5%. […] whole blood was pre-incubated with compound for 30 min and then stimulated with goat anti-human IgM (50 μg/ml, Southern Biotech) for 20 hrs. At the end of the 20 hour incubation, samples were incubated with fluorochrome-conjugated antibodies, PE mouse anti-human CD20 and APC Mouse anti-human CD69 (BD Biosciences), for 30 minutes. Samples were then lysed with Lyse solution (BD) and washed with PBS containing 2% fetal bovine serum (FBS). Fluorescent signals were acquired on flow cytometer LSR II (BD) and data were analyzed by Flow Jo. The percentage of activated (CD69hi) B-cell lymphocytes (CD20+) were determined using un-stimulated (negative control) and stimulated (positive control) wells as reference guidelines. The percentage inhibition was calculated and an IC50 curve was constructed using Xfit in Microsoft Excel with sigmoidal curve fitting.
`N[C@H]1COCC[C@H]1Nc1ncc2scc(C(=O)Nc3cccc(-n4nccn4)n3)c2n1` [Compound 5, 2-((3R,4R)-3-Amino-tetrahydro-pyran-4-ylamino)-thieno[3,2-d]pyrimidine-7-carboxylic acid (6-[1,2,3]triazol-2-yl-pyridin-2-yl)-amide] was tested, and the IC50 was 3.79 µM. `N[C@H]1CCCC[C@H]1Nc1ncc2scc(C(=O)Nc3ccc4ncccc4n3)c2n1` [Compound 10, 2-((1R,2S)-2-Amino-cyclohexylamino)-thieno[3,2-d]pyrimidine-7-carboxylic acid [1,5]naphthyridin-2-ylamide] gave an IC50 of 3.74 µM. In the case of `Cn1ccc(NC(=O)c2csc3cnc(N[C@@H]4CCOC[C@@H]4N)nc23)n1` [Compound 19, 2-((3R,4R)-3-Amino-tetrahydro-pyran-4-ylamino)-thieno[3,2-d]pyrimidine-7-carboxylic acid (1-methyl-1H-pyrazol-3-yl)-amide], the IC50 is reported as 10.7 µM. `N[C@H]1COCC[C@H]1Nc1ncc2scc(C(=O)Nc3cnc4cccnn34)c2n1` [Compound 23, 2-((3R,4R)-3-Amino-tetrahydro-pyran-4-ylamino)-thieno[3,2-d]pyrimidine-7-carboxylic acid imidazo[1,2-b]pyridazin-3-ylamide] showed an IC50 of 1.36 µM. `Cc1ccc(NC(=O)c2csc3cnc(N[C@@H]4CCOC[C@@H]4N)nc23)cc1` [Compound 18, 2-((3R,4R)-3-Amino-tetrahydro-pyran-4-ylamino)-thieno[3,2-d]pyrimidine-7-carboxylic acid p-tolylamide] was tested, and the IC50 was 12.2 µM. `N[C@H]1CCCC[C@H]1Nc1ncc2scc(C(=O)Nc3ccc4cnccc4n3)c2n1` [Compound 7, 2-((1R,2S)-2-Amino-cyclohexylamino)-thieno[3,2-d]pyrimidine-7-carboxylic acid [1,6]naphthyridin-2-ylamide] was tested, and the IC50 was 0.55 µM. `N[C@H]1COCC[C@H]1Nc1ncc2scc(C(=O)Nc3cnn4cccnc34)c2n1` [Compound 22, 2-((3R,4R)-3-Amino-tetrahydro-pyran-4-ylamino)-thieno[3,2-d]pyrimidine-7-carboxylic acid pyrazolo[1,5-a]pyrimidin-3-ylamide] gave an IC50 of 0.92 µM. Compound `N[C@H]1CCCC[C@H]1Nc1ncc2scc(C(=O)Nc3nc4ccccc4[nH]3)c2n1` [Compound 9, 2-((1R,2S)-2-Amino-cyclohexylamino)-thieno[3,2-d]pyrimidine-7-carboxylic acid (1H-benzoimidazol-2-yl)-amide] has an IC50 of 50 µM. With `Cn1cnc2c(NC(=O)c3csc4cnc(N[C@@H]5CCOC[C@@H]5N)nc34)cccc21` [Compound 11, 2-((3R,4R)-3-Amino-tetrahydro-pyran-4-ylamino)-thieno[3,2-d]pyrimidine-7-carboxylic acid (1-methyl-1H-benzoimidazol-4-yl)-amide hydrochloride] the IC50 was 1.44 µM. `Cc1ccc(NC(=O)c2csc3cnc(N[C@@H]4CCOC[C@@H]4N)nc23)nc1C` [Compound 25, 2-((3R,4R)-3-Amino-tetrahydro-pyran-4-ylamino)-thieno[3,2-d]pyrimidine-7-carboxylic acid (5,6-dimethyl-pyridin-2-yl)-amide] showed an IC50 of 1.67 µM. Compound `Cc1cc(NC(=O)c2csc3cnc(N[C@@H]4CCCC[C@@H]4N)nc23)cc2cccnc12` [Compound 2, 2-((1R,2S)-2-Amino-cyclohexylamino)-thieno[3,2-d]pyrimidine-7-carboxylic acid (8-methyl-quinolin-6-yl)-amide] has an IC50 of 0.19 µM. Compound `N[C@H]1COCC[C@H]1Nc1ncc2scc(C(=O)Nc3cccc(-n4ccnn4)n3)c2n1` [Compound 6, 2-((3R,4R)-3-Amino-tetrahydro-pyran-4-ylamino)-thieno[3,2-d]pyrimidine-7-carboxylic acid (6-[1,2,3]triazol-1-yl-pyridin-2-yl)-amide] has an IC50 of 4.29 µM. `Cn1cnc2c(NC(=O)c3csc4cnc(NCCN)nc34)cccc21` [Compound 12, 2-(2-Amino-ethylamino)-thieno[3,2-d]pyrimidine-7-carboxylic acid (1-methyl-1H-benzoimidazol-4-yl)-amide trifluoroacetate] gave an IC50 of 3.06 µM. For `CCc1cc(NC(=O)c2csc3cnc(N[C@@H]4CCCC[C@@H]4N)nc23)cc2cccnc12` [Compound 3, 2-((1R,2S)-2-Amino-cyclohexylamino)-thieno[3,2-d]pyrimidine-7-carboxylic acid (8-ethyl-quinolin-6-yl)-amide], the IC50 was 0.76 µM. `Cc1cc(C)nc(NC(=O)c2csc3cnc(N[C@@H]4CCOC[C@@H]4N)nc23)c1` [Compound 24, 2-((3R,4R)-3-Amino-tetrahydro-pyran-4-ylamino)-thieno[3,2-d]pyrimidine-7-carboxylic acid (4,6-dimethyl-pyridin-2-yl)-amide] gave an IC50 of 1.53 µM. `Cn1nc(NC(=O)c2csc3cnc(N[C@@H]4CCCC[C@@H]4N)nc23)c2ccc(F)cc21` [Compound 15, 2-((1R,2S)-2-Amino-cyclohexylamino)-thieno[3,2-d]pyrimidine-7-carboxylic acid (6-fluoro-1-methyl-1H-indazol-3-yl)-amide trifluoroacetate] showed an IC50 of 50 µM. `N[C@H]1COCC[C@H]1Nc1ncc2scc(C(=O)Nc3ccc4ccccc4c3)c2n1` [Compound 16, 2-((3R,4R)-3-Amino-tetrahydro-pyran-4-ylamino)-thieno[3,2-d]pyrimidine-7-carboxylic acid naphthalen-2-ylamide] gave an IC50 of 3.73 µM. `Cn1cc(NC(=O)c2csc3cnc(N[C@@H]4CCOC[C@@H]4N)nc23)cn1` [Compound 21, 2-((3R,4R)-3-Amino-tetrahydro-pyran-4-ylamino)-thieno[3,2-d]pyrimidine-7-carboxylic acid (1-methyl-1H-pyrazol-4-yl)-amide] was tested, and the IC50 was 5.8 µM. `N[C@H]1CCCC[C@H]1Nc1ncc2scc(C(=O)Nc3nc4ccccc4s3)c2n1` [Compound 8, 2-((1R,2S)-2-Amino-cyclohexylamino)-thieno[3,2-d]pyrimidine-7-carboxylic acid benzothiazol-2-ylamide] gave an IC50 of 50 µM. Compound `CCc1cccc(NC(=O)c2csc3cnc(N[C@@H]4CCOC[C@@H]4N)nc23)n1` [Compound 1, 2-((3R,4R)-3-Amino-tetrahydro-pyran-4-ylamino)-thieno[3,2-d]pyrimidine-7-carboxylic acid (6-ethyl-pyridin-2-yl)-amide] has an IC50 of 5.38 µM. Compound `Cc1nc(NC(=O)c2csc3cnc(N[C@@H]4CCCC[C@@H]4N)nc23)ccc1C#N` [Compound 4, 2-((1R,2S)-2-Amino-cyclohexylamino)-thieno[3,2-d]pyrimidine-7-carboxylic acid (5-cyano-6-methyl-pyridin-2-yl)-amide] has an IC50 of 50 µM.

Each compound was assayed against Recombinant human full length SYK protein (Homo sapiens (Human), UniProt P43405) (assay: SYK kinase assay (33P ATP incorporation into biotinylated peptide)). Conditions: ATP 20 μM.
Type: biochemical
Procedure: This assay is performed in 96-well format for IC50 determination with 8 samples which represented 10 half log dilutions and a 40 μL reaction volume. […] Phosphorylated products were detected upon termination of reactions with EDTA and the addition of Streptavidin coated beads.
Assay plates: 96-well MultiScreen 0.65 um filter plates (Millipore Cat. No.: MADVNOB10)
final concentration: 50 mM HEPES pH7.5
BSA: Bovine Serum Albumin Fraction V, fatty acid free (Roche Diagnostics GmbH, Cat. No. 9100221) diluted to a final concentration of 0.1%
Assay Dilution Buffer (ADB): 50 mM HEPES, 0.1 mM EGTA, 0.1 mM Na Vanadate, 0.1 mM β-glycerophosphate, 10 mM MgCl2, 1 mM DTT, 0.1% BSA, pH 7.5
Bead wash buffer: 10 g/L PBS (Phosphate buffered saline) with 2M NaCl+1% phosphoric acid.
With `Cc1cc(NC(=O)c2csc3cnc(N[C@@H]4CCCC[C@@H]4N)nc23)cc2cccnc12` [Compound 2, 2-((1R,2S)-2-Amino-cyclohexylamino)-thieno[3,2-d]pyrimidine-7-carboxylic acid (8-methyl-quinolin-6-yl)-amide] the IC50 was < 0.001 µM.

From patent US9701691B2, “Thienopyrimidine compounds” (Hoffmann-La Roche Inc., priority 2012, dated 2017)
